We go through two compounds from patent US20100040607A1, “Combination Therapy with Inhibitors of HMGB and Caspase for the Treatment of Inflammatory Diseases” (priority 2005, published 2010).

In experiment [1] the test system is RAW 264.7 cells. Nature of the experiment: LPS-induced HMGB1 protein in RAW 264.7 cell supernatants by Western blot. The note with it: LPS 200 ng/ml, 0.1 to 10 μM, 16 h. The format is cell-based, Murine. The protocol:
Treatment of RAW 264.7 cells with caspase inhibitor and Western blotting of HMGB1. Murine macrophage-like RAW 264.7 cells (American Type Culture Collection, ATCC, Rockville, Md.) were cultured in a 24-well culture dish in RPMI 1640 medium (Life Technologies, Grand Island, N.Y.), supplemented with 10% fetal bovine serum (Gemini, Catabasas, Calif.), penicillin and streptomycin (Life Technologies). Cells were used at 90% confluence and treatment was carried out in serum-free Opti-MEM I medium (Life Technologies). The cells were treated with LPS (200 ng/ml, Sigma, E. coli. 0111:B4) and various concentrations, ranging from 0.1 to 10 μM, of either the caspase inhibitor, Z-VAD-FMK (BD Biosciences), or a control peptide, Z-FA-FMK (BD Biosciences), in Opti-MEM I medium (Life Technologies, Grand Island, N.Y.). After 16 h, cell culture supernatants were concentrated by Centricon 10 (Millpore Corp., Bedford, Mass.) and HMGB1 levels were determined by Western blot. […] Western blots were scanned with a silver image scanner (Silverscanner II, Lacie Limited, Beaverton, Oreg.), and the relative band intensity was quantified using the NIH image 1.59 software. The levels of HMGB1 were calculated with reference to standard curves generated with purified HMGB1.

Another experiment concerns HMGB1. The experiment in a line: HMGB1 protein levels in BAL, peritoneal fluid and serum of CLP septic mice. The format is in vivo, BALB/c mice. The following applies: 0.5 mg IP at 90 min after surgery, 24 h, BAL fluid. The protocol: Cecal ligation and puncture (CLP) surgery was performed on BALB/c mice to induce sepsis as described previously (Fink, M. P. and Heard, S. O., J. Surg. Res. 49:186-96 (1990); Friedman, G., et al., Crit. Care Med. 26:2078-86 (1998); Remick, D., et al., Shock 4:89-95 (1995)). At 90 min after the surgery, 0.5 mg of either Z-VAD-FMK (VAD) caspase inhibitor or Z-FA-FMK control peptide was administered to each mouse by intraperitoneal injection. Mice were euthanized 24 h after CLP. HMGB1 protein levels in bronchoalveolar fluid (BAL), peritoneal fluid and serum were measured (FIG. 6). Protein levels of certain serum (e.g., IL-6, KC, MIP-2) and BAL (e.g., KC, MW-2) cytokines were determined (FIG. 7). Cell-conditioned medium, lung lavage fluid or peritoneal lavage fluid (100-2000) were first concentrated by passing through Centricon 10 (Millpore Corp. Bedford, Mass.). Cytokines were measured by using an enzyme-linked immunosorbent assay (ELISA) kit according to the instructions of the manufacturer (R & D System Inc., Minneapolis, Minn.). […] Western blots were scanned with a silver image scanner ([…] Limited, Beaverton, Oreg.), and the relative band intensity was quantified by using the NIH image 1.59° software. The levels of HMGB1 were calculated with reference to standard curves generated with purified HMGB1.

The subject of the next experiment is IL-6, KC, MIP-2. The experiment in a line: Cytokine levels (IL-6, KC, MIP-2) in serum and BAL of CLP septic mice by ELISA. The format is in vivo, BALB/c mice. The following applies: 0.5 mg IP at 90 min after surgery, 24 h. The protocol: Cecal ligation and puncture (CLP) surgery was performed on BALB/c mice to induce sepsis as described previously (Fink, M. P. and Heard, S. O., J. Surg. Res. 49:186-96 (1990); Friedman, G., et al., Crit. Care Med. 26:2078-86 (1998); Remick, D., et al., Shock 4:89-95 (1995)). At 90 min after the surgery, 0.5 mg of either Z-VAD-FMK (VAD) caspase inhibitor or Z-FA-FMK control peptide was administered to each mouse by intraperitoneal injection. Mice were euthanized 24 h after CLP. HMGB1 protein levels in bronchoalveolar fluid (BAL), peritoneal fluid and serum were measured (FIG. 6). Protein levels of certain serum (e.g., IL-6, KC, MIP-2) and BAL (e.g., KC, MW-2) cytokines were determined (FIG. 7). Cell-conditioned medium, lung lavage fluid or peritoneal lavage fluid (100-2000) were first concentrated by passing through Centricon 10 (Millpore Corp. Bedford, Mass.). Cytokines were measured by using an enzyme-linked immunosorbent assay (ELISA) kit according to the instructions of the manufacturer (R & D System Inc., Minneapolis, Minn.). To determine HMGB1 concentrations, Centricon 10-filtered samples were fractionated by SDS-PAGE, transferred to PVDF Immunoblot membrane (Bio-Rad laboratories, Hercules, Calif.), and probed with polyclonal anti-HMGB1 IgG (5 μg/ml) for Western blot. Donkey anti-rabbit IgG conjugated with HRP (Amersham, Little Chalfont Buckinghamshire, England) and used at final dilution of 1:5,000. Polyclonal antibodies raised against purified HMGB1 were generated in rabbits (Cocalico Biologicals, Inc., Reamstown, Pa.) and IgG was purified using protein A agarose according to manufacturer's instructions (Pierce, Rockford, Ill.). Western blots were scanned with a silver image scanner ([…] Limited, Beaverton, Oreg.), and the relative band intensity was quantified by using the NIH image 1.59° software. The levels of HMGB1 were calculated with reference to standard curves generated with purified HMGB1.

A further experiment has as its system apoptotic cells. Nature of the experiment: Caspase 3 and TUNEL staining of spleen and thymus sections of CLP septic mice. The format is in vivo, BALB/c mice. The following applies: 0.5 mg IP at 90 min after surgery, 24 h. The protocol:
Cecal ligation and puncture (CLP) surgery was performed on BALB/c mice to induce sepsis as described previously (Fink, M. P. and Heard, S. O., J. Surg. Res. 49:186-96 (1990); Friedman, G., et al., Crit. Care Med. 26:2078-86 (1998); Remick, D., et al., Shock 4:89-95 (1995)). At 90 min after the surgery, 0.5 mg of either Z-VAD-FMK (VAD) caspase inhibitor or Z-FA-FMK control peptide was administered to each mouse by intraperitoneal injection. Mice were euthanized 24 h after CLP.
Apoptotic cells were detected by performing Caspase 3 staining (FIG. 8A) and TUNEL staining (FIG. 8B) on fixed spleen and thymus sections from sacrificed mice that were either untreated (Normal) or treated with Z-VAD-FMK (VAD) caspase inhibitor (CLP+VAD) or Z-FA-FMK control peptide (CLP+ctrl) following CLP surgery. […] mice were analyzed in each group. Tissue sections were cut at 5 μm. Sections were placed on glass slides and subjected to staining using a TUNEL assay, performed according to manufacturer's protocol (ApoAlert DNA fragmentation assay kit, BD BioSciences, Palo Alto, Calif., Cat# K2024-1). […] Four to five mice were analyzed from each group.

The subject of experiment [2] is RAW 264.7 cells. The experiment in a line: HMGB1 translocation in LPS-treated RAW 264.7 cells by immunofluorescence. The note with it: LPS 100 ng/ml, 1 μM, 16 hours. The format is cell-based, Murine. The protocol:
RAW 264.7 cells were plated in 8-well slide chambers (Lab-Tek, Nalge Nunc Internationals, Naperville, Ill.) and used at 60% confluence. Cells were incubated with LPS (100 ng/ml) alone, or LPS (100 ng/ml) with either 1 μM Z-VAD-FMK (VAD) or Z-FA-FMK control peptide for 16 hours in Opti-MEM I medium. Cells were washed 3 times with phosphate-buffered saline (PBS) at pH 7.2 and fixed in 2% neutral formalin for 20 minutes at room temperature. Polyclonal anti-HMGB1 antibody was added at a concentration of 2.5 μg/ml and incubated for an additional 30 minutes at room temperature. FITC-labeled anti-rabbit IgG was added (1:300 dilution, Sigma, St. Louis, Mo.; Cat. No. F9887). Cells were then washed 3 times with PBS (pH 7.2) with 0.1% saponin (Sigma Cat. #S4521), and mounted for fluorescent confocal microscopy analysis. To mount cells on a slide, one drop of VECTASHIELD mounting medium (Vector Lab, Cat#H-10000) was dispensed on to the section and allowed to cover the entire section. A coverslip was added, and the slides were imaged using a Zeiss, Axiovert 200 microscope (Gottingen, Germany).

Peptide text beside a SMILES is read from it. * marks the point of attachment. Cbz = O=C(OCc1ccccc1)*; CH2F = FC*

Consider `CC(NC(=O)[C@H](Cc1ccccc1)NC(=O)OCc1ccccc1)C(=O)CF` (some centres unmarked) [Z-FA-FMK], for which, in the experiment on RAW 264.7 cells [1], the “LPS-induced expression of HMGB1 protein” value is recorded as “did not have an effect on HMGB1 expression”.

As for `COC(=O)CC(NC(=O)C(C)NC(=O)C(NC(=O)OCc1ccccc1)C(C)C)C(=O)CF` (stereo not drawn) [Z-VAD-FMK, carbobenzoxyl-valyl-alanyl-aspartyl-[O-methyl]-fluoromethylketone] (Cbz-Val-Ala-Asp(OMe)-CH2F; configuration not given here), the “HMGB1 expression in septic mice” value with HMGB1 is on record as “inhibited expression”. Further, in the experiment on IL-6, KC, MIP-2, the “IL-6 expression in septic mice” value is “inhibited expression”, the “KC expression in septic mice” value is “inhibited expression” and the “MIP-2 expression in septic mice” value is listed as “inhibited expression”. Also, the “LPS-induced expression of HMGB1 protein” value with RAW 264.7 cells [1] was “inhibited LPS-induced expression of HMGB1 protein in a dose-dependent manner”. In addition, the “number of apoptotic cells in spleen and thymus sections” value in the experiment on apoptotic cells is on record as “reduced the number of apoptotic cells”. In addition, the “HMGB1 translocation to the cytoplasm” value with RAW 264.7 cells [2] is on record as “inhibited HMGB1 translocation to the cytoplasm”.
